Test results published in US20070099855A1 (priority 2003, published 2007).

Test system: SARS-associated coronavirus
Assay: organism not typed
Type: cell-based
Details: for EC50: Vero
[1] = Vero cell cultures, cytopathic effect scored 72-96 h after infection, mean of eight assays
[2] = Vero cell cultures, tested as in Example 1

## O=c1cnn([C@@H]2O[C@H](CO)[C@@H](O)[C@H]2O)c(=O)[nH]1 [Compound 6-azauridine, 6-azauridine]
Vero cells
  effect on replication of the SARS-associated coronaviruses: inhibited replication of SARS-CV at non-toxic doses
Ratio CC50/EC50, Vero cells
  Selectivity Index: 6
Ratio CC50/EC50, Vero cells, listed as 6-azuridine
  Selectivity Index: 5

## COc1c(C)c2c(c(O)c1C/C=C(\C)CCC(=O)O)C(=O)OC2 [Mycophenolic acid]
Vero cells
  effect on replication of the SARS-associated coronaviruses: did not affect replication
[1]
  EC50: > 50 µg/mL

## CC1(C)C(OC2OC(C(=O)O)C(O)C(O)C2OC2OC(C(=O)O)C(O)C(O)C2O)CC[C@]2(C)[C@H]3C(=O)C=C4[C@@H]5C[C@@](C)(C(=O)O)CC[C@]5(C)CC[C@@]4(C)[C@]3(C)CC[C@@H]12 (stereo partly drawn) [Glycyrrhizin, (3-beta,20-beta)-20-Carboxy-11-oxo-30-norolean-12-en-3-yl 2-O-beta-D-glucopyranuronosyl-alpha-D-glucopyranosiduronic acid]
Compound added after virus adsorption, Vero cells
  EC50: 600 µg/mL
Compound added during and after virus adsorption, Vero cells
  EC50: 300 µg/mL
Compound added during virus adsorption, Vero cells
  EC50: 2400 µg/mL
After virus adsorption, CC50/EC50
  Selectivity Index: >33
During and after virus adsorption, CC50/EC50
  Selectivity Index: >67

## COC(=O)[C@@]1(C)CC[C@]2(C)CC[C@]3(C)C(=CC(=O)C4[C@@]5(C)CCC(OC6OC(C(=O)NN)C(O)C(O)C6OC6OC(C(=O)NN)C(O)C(O)C6O)C(C)(C)C5CC[C@]43C)C2C1 (some centres unmarked) [Compound 7]
Vero cells
  Therap. IndexI: 4
[2]
  EC50: 16 µM

## COC(=O)[C@@]1(C)CC[C@]2(C)CC[C@]3(C)C(=CC(=O)C4[C@@]5(C)CCC(OC6OC(CO)C(O)C(O)C6OC6OC(CO)C(O)C(O)C6O)C(C)(C)C5CC[C@]43C)C2C1 (some centres unmarked) [Compound 8]
Vero cells
  Therap. IndexI: 6
[2]
  EC50: 8 µM

## CC1(C)C(OC2OC(C(=O)O)C(O)C(O)C2OC2OC(C(=O)O)C(O)C(O)C2O)CC[C@@]2(C)C1CC[C@]1(C)C2C(=O)C=C2C3C[C@@](C)(C(=O)O)CC[C@]3(C)CC[C@]21C.N (some centres unmarked) [Glycyrrhizin Monoammonium Salt]
Vero cells
  Therap. IndexI: 2
[2]
  EC50: 327 µM

## NC(=O)c1ncn([C@@H]2O[C@H](CO)[C@@H](O)[C@H]2O)n1 [Ribavirin]
Vero cells
  effect on replication of the SARS-associated coronaviruses: did not affect replication
[1]
  EC50: > 1000 µg/mL

## NC(=O)c1[nH]nc([C@@H]2O[C@H](CO)[C@@H](O)[C@H]2O)c1O [Pyrazofurin]
Vero cells
  effect on replication of the SARS-associated coronaviruses: inhibited replication of SARS-CV at non-toxic doses
Ratio CC50/EC50, Vero cells
  Selectivity Index: 12
